Test system: Escherichia coli
Assay: Survival (viability) of bacteria collected using surfactant-containing solution
Format: cell-based
Conditions: 1% surfactant solution, 20° C.; then capture with 10% cationic graft polymer; one hundredth of suspension cultured 37° C. 18 hours; Control 1 >5000
Description: Escherichia coli precipitated on a separating agent in a blood collection tube is collected while being alive using a non-ionic surfactant-containing solution.
The produced Escherichia coli was added to a physiological saline solution in an amount of 2×10^8 cell/mL, and the resulting mixture was used as a sample.
To a blood collection tube, 3 mL of a bacterial solution in which Escherichia coli was dispersed in a physiological saline solution was added, and was centrifuged at 3000 rpm for five minutes. Thereafter, the supernatant was removed. Subsequently, 0.5 mL of a 1% surfactant solution was added to the blood collection tube, and a bacterial cell precipitated on a surface of a separating agent was dispersed.
The bacterial cell suspension was allowed to stand at 20° C. for 30 minutes and three hours. Thereafter, 100 μL of a 10% cationic graft polymer and 100 μL of a reaction solution were mixed and allowed to react for one minute. Thereafter, the resulting product was centrifuged for 30 seconds by a tabletop small centrifugal machine to obtain a precipitation pellet. The supernatant was removed, and the resulting precipitation pellet was completely dispersed with 500 μL of a dispersion solution to obtain a suspension. One hundredth of the suspension was cultured at 37° C. for 18 hours using a LB bacteria culture agar medium, and the number of living bacteria was confirmed by the number of colonies.
As a control, a physiological saline solution was used in place of the surfactant solution (Control 1).

Compound: C[C@H](CCC(=O)NCCC[N+](C)(C)CCCS(=O)(=O)[O-])[C@H]1CC[C@H]2[C@@H]3[C@H](O)C[C@@H]4C[C@H](O)CC[C@]4(C)[C@H]3C[C@H](O)[C@]12C [CHAPS]
- the number of colonies, allowed to stand for 30 minutes: 84
- the number of colonies, allowed to stand for 3 hours: 61

Compound: sucrose laurate
- the number of colonies, allowed to stand for 30 minutes: 4000
- the number of colonies, allowed to stand for 3 hours: 3200

— patent publication US10252258B2, “Method for separating and concentrating target substance using novel cationic graft polymer” (priority 2014, dated 2019)
